In US20240270699A1, “COMPOUNDS HAVING N-ARYLPYRIMIDIN-2-AMINE DERIVATIVES AS THERAPEUTIC AGENTS” (Lomond Therapeutics, Inc., priority 2021, published 2024):
Read-outs that look alike come from different tables or passages of the source.

Experiments:
[1] = Pharmacokinetic (PK) study in mice; assay type: in vivo; conditions: mouse, plasma, male CD-1 mice, PO 10 mg/kg, solution, vs IV 2 mg/kg, read-out: Fabs, % (percent bioavailability)
Jurkat cells = test: IL-2 release Jurkat assay (anti-CD3/anti-CD28 stimulation, IL-2 ELISA); assay type: cell-based, human; conditions: activation with 400 ng/mL aCD3 + 400 ng/mL aCD28, 24 hours
recombinant HPK1 protein = molecular target: T1, recombinant HPK1 protein (Homo sapiens, UniProt Q92918); test: Primary assay of HPK1 enzymatic activity inhibition (ADP-Glo luminescence); assay type: biochemical; conditions: recombinant HPK1, MBP substrate, 1 hour at room temperature
T1 construct: purchased Promega V6398
T1 sequence (Q92918 1-346 limits assumed): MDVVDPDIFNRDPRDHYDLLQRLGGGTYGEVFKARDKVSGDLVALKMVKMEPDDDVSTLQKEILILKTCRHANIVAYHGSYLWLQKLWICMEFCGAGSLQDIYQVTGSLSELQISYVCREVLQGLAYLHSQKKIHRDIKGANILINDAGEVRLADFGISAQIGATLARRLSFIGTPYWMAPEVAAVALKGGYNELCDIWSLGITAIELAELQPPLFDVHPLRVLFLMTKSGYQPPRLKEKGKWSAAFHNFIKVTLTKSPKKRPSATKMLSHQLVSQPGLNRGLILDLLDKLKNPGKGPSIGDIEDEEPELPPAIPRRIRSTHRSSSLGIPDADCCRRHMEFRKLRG

[2] = vehicle 80% PEG400, 10% TPGS and 10% ethanol
[3] = Table B: Jurkat, 1.5 μM of tested compounds
[4] = Table C: Jurkat, 6 μM of tested compounds, stimulated vehicle = A
[5] = Table E: Jurkat, 1.5 μM of tested compounds
[6] = Table G: Jurkat, 1.0 μM of tested compounds
[7] = Table F: Jurkat, 1.0 μM of tested compounds

Compound | bioavailability [1, 2] | IC50 (recombinant HPK1 protein) | further results
Cc1noc(-c2cnc(Nc3ccc4c(c3)CCC(=O)N4)nc2N[C@H](CO)c2ccccc2)n1 [Compound 86, 6-[[4-[[(1S)-2-hydroxy-1-phenyl-ethyl]amino]-5-(3-methyl-1,2,4-oxadiazol-5-yl)pyrimidin-2-yl]amino]-3,4-dihydro-1H-quinolin-2-one] | 83.6% | < 50 nM | IL-2, pg/mL stimulated (Jurkat cells; [3]): C (25.0 pg/mL≤IL-2<35.0 pg/mL)
CS(=O)(=O)c1ccc(Nc2ncc(-c3nnco3)c(N[C@H](CO)c3ccccc3)n2)cc1F [Compound 161, (2S)-2-{[2-{[3-fluoro-4-(methylsulfonyl)phenyl]amino}-5-(1,3,4-oxadiazol-2-yl)pyrimidin-4-yl]amino}-2-phenylethanol] |  | < 50 nM | bioavailability ([1]; vehicle 20% HP-b-CD): 95.1%; IL-2, pg/mL stimulated (Jurkat cells; [4]): C (100 pg/mL≤IL-2<150 pg/mL)
Cc1noc(-c2cnc(Nc3ccc(S(C)(=O)=O)c(F)c3)nc2N[C@H](CO)c2ccccc2)n1 [Compound 270, (2S)-2-{[2-{[3-fluoro-4-(methylsulfonyl)phenyl]amino}-5-(3-methyl-1,2,4-oxadiazol-5-yl)pyrimidin-4-yl]amino}-2-phenylethanol] | 76.5% | < 50 nM | IL-2, pg/mL stimulated (Jurkat cells; [4]): A (IL-2<50 pg/mL)
Cc1noc(-c2cnc(Nc3ccc4c(c3)CNC4=O)nc2N[C@H](CO)c2ccccc2)n1 [Compound 571, 5-[[4-[[(1S)-2-hydroxy-1-phenyl-ethyl]amino]-5-(3-methyl-1,2,4-oxadiazol-5-yl)pyrimidin-2-yl]amino]isoindolin-1-one] | 8% | < 50 nM | IL-2, pg/mL stimulated (Jurkat cells; [3]): C (25.0 pg/mL≤IL-2<35.0 pg/mL)
COc1cccc([C@@H](CO)Nc2nc(Nc3ccc4c(c3)CCNC4=O)ncc2-c2nc(C)no2)c1 [Compound 575, 6-[[4-[[(1S)-2-hydroxy-1-(3-methoxyphenyl)ethyl]amino]-5-(3-methyl-1,2,4-oxadiazol-5-yl)pyrimidin-2-yl]amino]-3,4-dihydro-2H-isoquinolin-1-one] |  | < 50 nM | IL-2, pg/mL stimulated (Jurkat cells; [5]): C (100 pg/mL≤IL-2<150 pg/mL)
Cc1noc(-c2cnc(Nc3ccc4c(c3)C(C)(C)NC4=O)nc2N[C@H](CO)c2ccccc2)n1 [Compound 579, 5-[[4-[[(1S)-2-hydroxy-1-phenyl-ethyl]amino]-5-(3-methyl-1,2,4-oxadiazol-5-yl)pyrimidin-2-yl]amino]-3,3-dimethyl-isoindolin-1-one] |  | < 50 nM | IL-2, pg/mL stimulated (Jurkat cells; [7]): A (IL-2<50 pg/mL)
Cc1noc(-c2cnc(Nc3ccc4c(c3)CCN(COCC[Si](C)(C)C)C4=O)nc2N[C@H](CO)c2ccccc2)n1 [Compound 582, 6-[[4-[[(1S)-2-hydroxy-1-phenyl-ethyl]amino]-5-(3-methyl-1,2,4-oxadiazol-5-yl)pyrimidin-2-yl]amino]-2-(2-trimethylsilylethoxymethyl)-3,4-dihydroisoquinolin-1-one] |  | 50 to 200 nM | IL-2, pg/mL stimulated (Jurkat cells; [7]): B (50 pg/mL≤IL-2<100 pg/mL)

Continued, in another order:

bioavailability [1, 2] | IC50 (recombinant HPK1 protein) | Compound | further results
16.3% | < 50 nM | O=C1CCc2cc(Nc3ncc(-c4nnco4)c(N[C@H](CO)c4ccccc4)n3)ccc2N1 [Compound 19, 6-[[4-[[(1S)-2-hydroxy-1-phenyl-ethyl]amino]-5-(1,3,4-oxadiazol-2-yl)pyrimidin-2-yl]amino]-3,4-dihydro-1H-quinolin-2-one] | IL-2, pg/mL stimulated (Jurkat cells; [3]): B (5.0 pg/mL≤IL-2<25.0 pg/mL)
11.4% | < 50 nM | O=S1(=O)CCCc2cc(Nc3ncc(-c4nnco4)c(N[C@H](CO)c4ccccc4)n3)ccc21 [Compound 228, (2S)-2-[[2-[(1,1-dioxo-3,4-dihydro-2H-thiochromen-6-yl)amino]-5-(1,3,4-oxadiazol-2-yl)pyrimidin-4-yl]amino]-2-phenyl-ethanol] | IL-2, pg/mL stimulated (Jurkat cells; [5]): B (50 pg/mL≤IL-2<100 pg/mL)
19.9% | 50 to 200 nM | Cc1noc(-c2cnc(Nc3ccc(S(C)(=O)=O)c(C)c3)nc2N[C@H](CO)c2ccccc2)n1 [Compound 252, (2S)-2-{[2-{[3-methyl-4-(methylsulfonyl)phenyl]amino}-5-(3-methyl-1,2,4-oxadiazol-5-yl)pyrimidin-4-yl]amino}-2-phenylethanol] | IL-2, pg/mL stimulated (Jurkat cells; [4]): B (50 pg/mL≤IL-2<100 pg/mL)
16.3% | < 50 nM | Cc1noc(-c2cnc(Nc3ccc4c(c3)CCNC4=O)nc2N[C@H](CO)c2ccccc2)n1 [Compound 558, 6-[[4-[[(1S)-2-hydroxy-1-phenyl-ethyl]amino]-5-(3-methyl-1,2,4-oxadiazol-5-yl)pyrimidin-2-yl]amino]-3,4-dihydro-2H-isoquinolin-1-one] | IL-2, pg/mL stimulated (Jurkat cells; Table D: Jurkat, 6 μM of tested compounds, stimulated vehicle = B): D (150 pg/mL≤IL-2)
9.2% | < 50 nM | O=C1NCCc2cc(Nc3ncc(-c4nnco4)c(N[C@H](CO)c4ccccc4)n3)ccc21 [Compound 563, 6-[[4-[[(1S)-2-hydroxy-1-phenyl-ethyl]amino]-5-(1,3,4-oxadiazol-2-yl)pyrimidin-2-yl]amino]-3,4-dihydro-2H-isoquinolin-1-one] | 
 | < 50 nM | Cc1noc(-c2cnc(Nc3ccc4c(c3)CC(C)(C)NC4=O)nc2N[C@H](CO)c2ccccc2)n1 [Compound 578, 6-[[4-[[(1S)-2-hydroxy-1-phenyl-ethyl]amino]-5-(3-methyl-1,2,4-oxadiazol-5-yl)pyrimidin-2-yl]amino]-3,3-dimethyl-2,4-dihydroisoquinolin-1-one] | IL-2, pg/mL stimulated (Jurkat cells; [6]): C (100 pg/mL≤IL-2<150 pg/mL)
 | < 50 nM | CN(C)Cc1noc(-c2cnc(Nc3ccc4c(c3)CCCS4(=O)=O)nc2N[C@H](CO)c2ccccc2)n1 [Compound 583, (2S)-2-[[5-[3-[(dimethylamino)methyl]-1,2,4-oxadiazol-5-yl]-2-[(1,1-dioxo-3,4-dihydro-2H-thiochromen-6-yl)amino]pyrimidin-4-yl]amino]-2-phenyl-ethanol] | IL-2, pg/mL stimulated (Jurkat cells; [7]): B (50 pg/mL≤IL-2<100 pg/mL)
 | < 50 nM | Cn1cc(-c2cnc(Nc3ccc4c(c3)CCNC4=O)nc2N[C@H](CO)c2ccccc2)cn1 [Compound 584, 6-[[4-[[(1S)-2-hydroxy-1-phenyl-ethyl]amino]-5-(1-methylpyrazol-4-yl)pyrimidin-2-yl]amino]-3,4-dihydro-2H-isoquinolin-1-one] | IL-2, pg/mL stimulated (Jurkat cells; [7]): A (IL-2<50 pg/mL)
 | < 50 nM | CN(C)Cc1noc(-c2cnc(Nc3ccc4c(c3)CNC4=O)nc2N[C@H](CO)c2ccccc2)n1 [Compound 585, 5-[[5-[3-[(dimethylamino)methyl]-1,2,4-oxadiazol-5-yl]-4-[[(1S)-2-hydroxy-1-phenyl-ethyl]amino]pyrimidin-2-yl]amino]isoindolin-1-one] | IL-2, pg/mL stimulated (Jurkat cells; [6]): D (150 pg/mL≤IL-2)
 | < 50 nM | O=S1(=O)CCCc2cc(Nc3ncc(-c4nc(CN5CCCC5)no4)c(N[C@H](CO)c4ccccc4)n3)ccc21 [Compound 586, (2S)-2-[[2-[(1,1-dioxo-3,4-dihydro-2H-thiochromen-6-yl)amino]-5-[3-(pyrrolidin-1-ylmethyl)-1,2,4-oxadiazol-5-yl]pyrimidin-4-yl]amino]-2-phenyl-ethanol] | IL-2, pg/mL stimulated (Jurkat cells; [6]): D (150 pg/mL≤IL-2)
 | < 50 nM | O=C1NCc2cc(Nc3ncc(-c4nc(CN5CCCC5)no4)c(N[C@H](CO)c4ccccc4)n3)ccc21 [Compound 587, 5-[[4-[[(1S)-2-hydroxy-1-phenyl-ethyl]amino]-5-[3-(pyrrolidin-1-ylmethyl)-1,2,4-oxadiazol-5-yl]pyrimidin-2-yl]amino]isoindolin-1-one] | IL-2, pg/mL stimulated (Jurkat cells; [6]): D (150 pg/mL≤IL-2)
